One assay deals with TAF1-BD2 (Homo sapiens, UniProt P21675). Briefly: TAF1-BD2 TR-FRET Binding Assay. As to conditions: read-out: TAF1-BD2 HTRF IC50.
In the next assay the target is TAF1-BD1 (Homo sapiens, UniProt P21675). Briefly: TAF1-BD1 TR-FRET Binding Assay. The settings on record: read-out: TAF1-BD1 HTRF IC50.

The structures appear in SMILES notation.

The term IC50 denotes the point on the concentration scale where inhibition reaches its midpoint.

In the case of `CCOC(=O)c1c(C)[nH]c2c(=O)n(C)cc(C#CC3(O)CCN(CC)CC3)c12` [Example 8, ethyl 4-[2-(1-ethyl-4-hydroxy-4-piperidyl)ethynyl]-2,6-dimethyl-7-oxo-1H-pyrrolo[2,3-c]pyridine-3-carboxylate], the IC50 worked out at 0.425 µM on TAF1-BD2 and 7.85 µM at TAF1-BD1.

In the case of `C=CCCn1cc(C#CC(C)(O)C2CC2)c2c(C(=O)OCC(C)C)c(C)[nH]c2c1=O` (stereo not shown) [Example 122, isobutyl 6-but-3-enyl-4-(3-cyclopropyl-3-hydroxy-but-1-ynyl)-2-methyl-7-oxo-1H-pyrrolo[2,3-c]pyridine-3-carboxylate], the IC50 was found to be 0.116 µM at TAF1-BD2 and 1.71 µM on TAF1-BD1.

For `CCOC(=O)c1c(C)[nH]c2c(=O)n(C)cc(C#CC3(O)CCOCC3)c12` [Example 88, ethyl 4-[2-(4-hydroxytetrahydropyran-4-yl)ethynyl]-2,6-dimethyl-7-oxo-1H-pyrrolo[2,3-c]pyridine-3-carboxylate], the IC50 was 0.0986 µM at TAF1-BD2 and 1.11 µM at TAF1-BD1.

As for `CCc1nnc(-c2c(C)[nH]c3c(=O)n(C)cc(C#CC(C)(O)C4CC4)c23)o1` (stereo not shown) [Example 181, 4-(3-cyclopropyl-3-hydroxy-but-1-ynyl)-3-(5-ethyl-1,3,4-oxadiazol-2-yl)-2,6-dimethyl-1H-pyrrolo[2,3-c]pyridin-7-one], the IC50 was found to be 0.0448 µM at TAF1-BD2 and 0.199 µM at TAF1-BD1.

Turning to `Cc1[nH]c2c(=O)n(C)cc(C#CC(C)(C)O)c2c1-c1nnc(C(C)C)o1` [Example 195, 4-(3-hydroxy-3-methyl-but-1-ynyl)-3-(5-isopropyl-1,3,4-oxadiazol-2-yl)-2,6-dimethyl-1H-pyrrolo[2,3-c]pyridin-7-one], the results for the IC50 on TAF1-BD2 and on TAF1-BD1 were 0.0294 µM and 0.36 µM, respectively.

Turning to `Cc1[nH]c2c(=O)n(C)cc(C#CC(C)(C)O)c2c1C(=O)OCc1ccccc1C(F)(F)F` [Example 116, [2-(trifluoromethyl)phenyl]methyl 4-(3-hydroxy-3-methyl-but-1-ynyl)-2,6-dimethyl-7-oxo-1H-pyrrolo[2,3-c]pyridine-3-carboxylate], the values for the IC50 at TAF1-BD2 and on TAF1-BD1 were 0.0277 µM and 0.105 µM, respectively.

Regarding `CCOC(=O)c1c(C)[nH]c2c(=O)n(C)cc(C#Cc3ccccc3F)c12` [Example 59, ethyl 4-[2-(2-fluorophenyl)ethynyl]-2,6-dimethyl-7-oxo-1H-pyrrolo[2,3-c]pyridine-3-carboxylate], the IC50 at TAF1-BD2 is 0.0562 µM; on TAF1-BD1 it was more than 2.22 µM.

On to `CCOC(=O)c1c(C)[nH]c2c(=O)n(C)cc(C#CC(O)(c3cccc(-c4cccnc4)c3)C(F)(F)F)c12` (stereo not shown) [Example 100, ethyl 2,6-dimethyl-7-oxo-4-[4,4,4-trifluoro-3-hydroxy-3-[3-(3-pyridyl)phenyl]but-1-ynyl]-1H-pyrrolo[2,3-c]pyridine-3-carboxylate], for which the IC50 on TAF1-BD2 was determined as 0.0273 µM; on TAF1-BD1, 0.189 µM.

Turning to `Cc1[nH]c2c(=O)n(C)cc(C#CC(C)(O)C(C)C)c2c1C(=O)OCC(C)C` (stereo not shown) [Example 128, isobutyl 4-(3-hydroxy-3,4-dimethyl-pent-1-ynyl)-2,6-dimethyl-7-oxo-1H-pyrrolo[2,3-c]pyridine-3-carboxylate], the values for the IC50 at TAF1-BD2 and on TAF1-BD1 were 0.062 µM and 0.253 µM, respectively.

As to `CCOC(=O)c1c(C)[nH]c2c(=O)n(C)cc(C#CC(O)(c3ccccc3)C(F)F)c12` (stereo not shown) [Example 89, ethyl 4-(4,4-difluoro-3-hydroxy-3-phenyl-but-1-ynyl)-2,6-dimethyl-7-oxo-1H-pyrrolo[2,3-c]pyridine-3-carboxylate], the IC50 on TAF1-BD2 stood at 0.0329 µM; at TAF1-BD1 it was 0.278 µM.

`Cc1[nH]c2c(=O)n(C)cc(C#CC(O)(c3ccccc3)C(F)(F)F)c2c1-c1nnc(CO)o1` (stereo not shown) [Example 205, 3-(5-(hydroxymethyl)-1,3,4-oxadiazol-2-yl)-2,6-dimethyl-4-(4,4,4-trifluoro-3-hydroxy-3-phenyl-but-1-ynyl)-1H-pyrrolo[2,3-c]pyridin-7-one]: the results for the IC50 on TAF1-BD2 and on TAF1-BD1 were 0.0888 µM and 0.334 µM, respectively.

As to `CC(=O)c1c(C)n(C)c2c(=O)[nH]cc(C#CC(C)(C)O)c12` [Example 199b, 3-acetyl-4-(3-hydroxy-3-methyl-but-1-ynyl)-1,2-dimethyl-6H-pyrrolo[2,3-c]pyridin-7-one], the IC50 at TAF1-BD2 and on TAF1-BD1 was 20 µM in each case.

As for `CCOC(=O)c1c(C)[nH]c2c(=O)n(C)cc(C#CC3(O)CCc4cccnc43)c12` (single isomer, unassigned) [Example 99a, ethyl 4-[2-(7-hydroxy-5,6-dihydrocyclopenta[b]pyridin-7-yl)ethynyl]-2,6-dimethyl-7-oxo-1H-pyrrolo[2,3-c]pyridine-3-carboxylate], the 50% inhibitory concentration (IC50) on TAF1-BD2 was found to be 1.18 µM; at TAF1-BD1, 2.93 µM.

Turning to `CCOC(=O)c1c(C)[nH]c2c(=O)n(C)cc(C#CC(C)(O)CCc3ccccc3)c12` (stereo not shown) [Example 23, ethyl 4-(3-hydroxy-3-methyl-5-phenyl-pent-1-ynyl)-2,6-dimethyl-7-oxo-1H-pyrrolo[2,3-c]pyridine-3-carboxylate], the IC50 amounted to 0.0586 µM on TAF1-BD2 and 0.182 µM on TAF1-BD1.

Regarding `Cc1[nH]c2c(=O)n(C)cc(C#CC(C)(O)C3CC3)c2c1C(=O)OC(C)(C)CC#N` (stereo not shown) [Example 134, (2-cyano-1,1-dimethyl-ethyl)-4-(3-cyclopropyl-3-hydroxy-but-1-ynyl)-2,6-dimethyl-7-oxo-1H-pyrrolo[2,3-c]pyridine-3-carboxylate], the IC50 on TAF1-BD2 was 0.0268 µM; at TAF1-BD1, 0.222 µM.

`CCOC(=O)c1c(C)[nH]c2c(=O)n(CC)cc(C#CC(C)(C)O)c12` [Example 50, ethyl 6-ethyl-4-(3-hydroxy-3-methyl-but-1-ynyl)-2-methyl-7-oxo-1H-pyrrolo[2,3-c]pyridine-3-carboxylate]: the IC50 came out at 0.45 µM at TAF1-BD2 and 9.87 µM on TAF1-BD1.

In the case of `CCNC(=O)c1c(C)[nH]c2c(=O)n(C)cc(C#CC(C)(C)O)c12` [Example 168, N-ethyl-4-(3-hydroxy-3-methyl-but-1-ynyl)-2,6-dimethyl-7-oxo-1H-pyrrolo[2,3-c]pyridine-3-carboxamide], the IC50 at TAF1-BD2 is 1.63 µM; at TAF1-BD1 it was 5.79 µM.

With `Cc1[nH]c2c(=O)n(C)cc(C#CC(C)(O)C3CC3)c2c1C1=NC(C(C)C)CO1` (stereo not shown) [Example 203, 4-(3-cyclopropyl-3-hydroxy-but-1-ynyl)-3-(4-isopropyl-4,5-dihydrooxazol-2-yl)-2,6-dimethyl-1H-pyrrolo[2,3-c]pyridin-7-one], the values for the IC50 on TAF1-BD2 and at TAF1-BD1 were 0.307 µM and 1.12 µM, respectively.

For the compound `Cc1[nH]c2c(=O)n(C)cc(C#CC(O)(c3ccccc3)C(F)(F)F)c2c1C(=O)OCc1ccccc1C#N` (stereo not shown) [Example 107, (2-cyanophenyl)methyl 2,6-dimethyl-7-oxo-4-(4,4,4-trifluoro-3-hydroxy-3-phenyl-but-1-ynyl)-1H-pyrrolo[2,3-c]pyridine-3-carboxylate], the IC50 on TAF1-BD2 stood at 0.344 µM; at TAF1-BD1 it was 1.63 µM.

Consider `Cc1[nH]c2c(=O)n(C)cc(C#CC(C)(O)C3CC3)c2c1-c1nnc(C2CCOC2)o1` (single isomer, unassigned) [Example 96b, 4-(3-cyclopropyl-3-hydroxy-but-1-ynyl)-2,6-dimethyl-3-(5-tetrahydrofuran-3-yl-1,3,4-oxadiazol-2-yl)-1H-pyrrolo[2,3-c]pyridin-7-one], for which the IC50 came to 0.26 µM on TAF1-BD2 and 1.14 µM on TAF1-BD1.

For the origin of these results see US10202378B2, “Therapeutic compounds and uses thereof” (GENENTECH, INC., priority 2015, dated 2019).
